Experimental data as given in PubChem BioAssay (NCI).
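GI50 is the concentration that inhibits growth by half. Definition used: TGI = concentration required for complete inhibition of growth.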

Tests used:
Assay in all cases: inhibition of tumour cell growth, NCI panel, 384-well format
OVCAR-5 ovarian = tested on: OVCAR-5 ovarian
NCI-H23 lung = tested on: NCI-H23 lung
A549 NSCLC = tested on: A549 NSCLC
OVCAR-3 ovarian = tested on: OVCAR-3 ovarian
MDA-MB-435 melanoma = tested on: MDA-MB-435 melanoma
K-562 leukemia = tested on: K-562 leukemia
CCRF-CEM leukemia = tested on: CCRF-CEM leukemia
MDA-MB-231 breast = tested on: MDA-MB-231 breast
786-0 renal = tested on: 786-0 renal
IGROV1 ovarian = tested on: IGROV1 ovarian
SF-539 CNS = tested on: SF-539 CNS
U251 glioblastoma = tested on: U251 glioblastoma
HCC-2998 colon = tested on: HCC-2998 colon
SK-MEL-5 melanoma = tested on: SK-MEL-5 melanoma
HCT-15 colon = tested on: HCT-15 colon
SW-620 colon = tested on: SW-620 colon
ACHN renal = tested on: ACHN renal
A498 renal = tested on: A498 renal
HS 578T breast = tested on: HS 578T breast
SNB-19 CNS = tested on: SNB-19 CNS
M14 melanoma = tested on: M14 melanoma
HCT-116 colon = tested on: HCT-116 colon
SF-268 CNS = tested on: SF-268 CNS
SK-OV-3 ovarian = tested on: SK-OV-3 ovarian
SF-295 CNS = tested on: SF-295 CNS
UACC-62 melanoma = tested on: UACC-62 melanoma
KM12 colon = tested on: KM12 colon
RXF 393 renal = tested on: RXF 393 renal
UACC-257 melanoma = tested on: UACC-257 melanoma

Structure (SMILES): CNC(=O)c1cc(Oc2ccc(NC(=O)Nc3cc(C(C)(C)C)nn3-c3ccc4ncccc4c3)c(F)c2)ccn1
- GI50 (OVCAR-5 ovarian): 0.884 µM
- TGI (OVCAR-5 ovarian): 58 µM
- GI50 (NCI-H23 lung): 0.49 µM
- TGI (NCI-H23 lung): 1.58 µM
- GI50 (A549 NSCLC): 1.18 µM
- TGI (A549 NSCLC): 23.2 µM
- GI50 (OVCAR-3 ovarian): 2.39 µM
- TGI (OVCAR-3 ovarian): 5.22 µM
- GI50 (MDA-MB-435 melanoma): 0.477 µM
- TGI (MDA-MB-435 melanoma): 1.7 µM
- TGI (K-562 leukemia): > 100 µM
- GI50 (CCRF-CEM leukemia): 1.37 µM
- TGI (CCRF-CEM leukemia): 2.76 µM
- GI50 (MDA-MB-231 breast): 0.558 µM
- TGI (MDA-MB-231 breast): > 100 µM
- GI50 ([…]-0 renal): 1.47 µM
- TGI (786-0 renal): 5.19 µM
- GI50 (IGROV1 ovarian): 0.442 µM
- TGI (IGROV1 ovarian): 7.53 µM
- GI50 (SF-539 CNS): 1.4 µM
- TGI (SF-539 CNS): 2.73 µM
- GI50 (U251 glioblastoma): 1.93 µM
- TGI (U251 glioblastoma): 4.95 µM
- GI50 (HCC-2998 colon): 2.14 µM
- TGI (HCC-2998 colon): 4.73 µM
- GI50 (SK-MEL-5 melanoma): 0.552 µM
- TGI (SK-MEL-5 melanoma): 1.83 µM
- GI50 (HCT-15 colon): 2.34 µM
- TGI (HCT-15 colon): 6.88 µM
- GI50 (SW-620 colon): 2.74 µM
- TGI (SW-620 colon): 5.71 µM
- GI50 (ACHN renal): 0.446 µM
- TGI (ACHN renal): 4.26 µM
- GI50 (A498 renal): 2.41 µM
- TGI (A498 renal): 9.32 µM
- GI50 (HS 578T breast): 0.547 µM
- TGI (HS 578T breast): 1.64 µM
- GI50 (SNB-19 CNS): 3.69 µM
- TGI (SNB-19 CNS): > 100 µM
- GI50 (M14 melanoma): 0.0977 µM
- TGI (M14 melanoma): 1.02 µM
- GI50 (HCT-116 colon): 0.937 µM
- TGI (HCT-116 colon): > 100 µM
- GI50 (SF-268 CNS): 0.192 µM
- TGI (SF-268 CNS): 0.752 µM
- GI50 (SK-OV-3 ovarian): 1.05 µM
- TGI (SK-OV-3 ovarian): > 100 µM
- GI50 (SF-295 CNS): 2.21 µM
- TGI (SF-295 CNS): > 100 µM
- GI50 (UACC-62 melanoma): 0.0328 µM
- TGI (UACC-62 melanoma): 0.612 µM
- TGI (KM12 colon): 6.36 µM
- GI50 (RXF 393 renal): 0.499 µM
- TGI (RXF 393 renal): 1.57 µM
- GI50 (UACC-257 melanoma): 0.358 µM
- TGI (UACC-257 melanoma): 1.71 µM
